Assays:
Test in all cases: relative viability (nuclei count vs DMSO), 5 days (fraction); higher = more cells survive
Doramapimod + Pictilisib = compound: Cc1ccc(-n2nc(C(C)(C)C)cc2NC(=O)Nc2ccc(OCCN3CCOCC3)c3ccccc23)cc1 [Doramapimod] + CS(=O)(=O)N1CCN(Cc2cc3nc(-c4cccc5[nH]ncc45)nc(N4CCOCC4)c3s2)CC1 [Pictilisib] (partner 1 µM)
Method in brief: (§1)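 Lung cancer cell lines in 1536-well plates were dosed by pin tool the day after seeding, either with one drug alone or with a fixed anchor-drug dose plus five library-drug doses (not always all listed) in √10 steps. After 5 days, cells were fixed and their nuclei stained in one step (final 0.05% Triton X-100, 1% formaldehyde, 1 ug/ml Hoechst), then counted on 4× images. Relative viability is the nuclei count in treated wells divided by that in vehicle wells. Values are medians of duplicate plates.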

IPA-3 + Pictilisib = compound: C1=CC=C2C(=C1)C=CC(=C2SSC3=C(C=CC4=CC=CC=C43)O)O [IPA-3] + CS(=O)(=O)N1CCN(Cc2cc3nc(-c4cccc5[nH]ncc45)nc(N4CCOCC4)c3s2)CC1 [Pictilisib] (partner 1 µM)
Method in brief: as §1

RAF265 + Pictilisib = compound: Cn1c(Nc2ccc(C(F)(F)F)cc2)nc2cc(Oc3ccnc(-c4ncc(C(F)(F)F)[nH]4)c3)ccc21 [RAF265] + CS(=O)(=O)N1CCN(Cc2cc3nc(-c4cccc5[nH]ncc45)nc(N4CCOCC4)c3s2)CC1 [Pictilisib] (partner 1 µM)
Method in brief: as §1

IPA-3 + Decitabine = compound: C1=CC=C2C(=C1)C=CC(=C2SSC3=C(C=CC4=CC=CC=C43)O)O [IPA-3] + Nc1ncn([C@H]2C[C@H](O)[C@@H](CO)O2)c(=O)n1 [Decitabine] (partner 2 µM)
Method in brief: as §1

Cell Line	relative viability (Doramapimod + Pictilisib; first compound 0.02 µM)	relative viability (Doramapimod + Pictilisib; first compound 0.06325 µM)	relative viability (Doramapimod + Pictilisib; first compound 0.2 µM)	relative viability (Doramapimod + Pictilisib; first compound 0.6325 µM)	relative viability (Doramapimod + Pictilisib; first compound 2 µM)	relative viability (IPA-3 + Pictilisib; first compound 0.2 µM)	relative viability (IPA-3 + Pictilisib; first compound 0.6325 µM)	relative viability (IPA-3 + Pictilisib; first compound 2 µM)	relative viability (IPA-3 + Pictilisib; first compound 6.325 µM)	relative viability (IPA-3 + Pictilisib; first compound 20 µM)	relative viability (RAF265 + Pictilisib; first compound 0.01 µM)	relative viability (RAF265 + Pictilisib; first compound 0.03162 µM)	relative viability (RAF265 + Pictilisib; first compound 0.1 µM)	relative viability (RAF265 + Pictilisib; first compound 0.3162 µM)	relative viability (RAF265 + Pictilisib; first compound 1 µM)	relative viability (IPA-3 + Decitabine; first compound 0.2 µM)	relative viability (IPA-3 + Decitabine; first compound 0.6325 µM)	relative viability (IPA-3 + Decitabine; first compound 2 µM)	relative viability (IPA-3 + Decitabine; first compound 6.325 µM)	relative viability (IPA-3 + Decitabine; first compound 20 µM)
NCI-H2170	0.332	0.325	0.295	0.438	0.269	0.324	0.302	0.303	0.303	0.346	0.34	0.283	0.287	0.214	0.239	0.462	0.421	0.424	0.445	0.439
HCC-366	0.15	0.137	0.131	0.125	0.136	0.161	0.152	0.0986	0.184	0.136	0.18	0.211	0.181	0.189	0.147	0.399	0.35	0.349	0.335	0.321
NCI-H2347	0.637	0.547	0.497	0.829	0.347	0.423	0.644	0.522	0.717	0.605	0.789	0.952	0.652	0.629	0.245	0.629	0.611	0.657	0.622	0.603
COR-L 105	0.425	0.344	0.374	0.426	0.379	0.465	0.422	0.393	0.416	0.351	0.487	0.316	0.383	0.292	0.307	0.652	0.609	0.657	0.66	0.649
201T	0.696	0.662	0.668	0.863	0.609	0.748	0.684	0.671	0.714	0.809	0.717	0.7	0.685	0.564	0.552	0.888	0.861	0.839	0.868	0.947
NCI-H2126	0.487	0.542	0.488	0.438	0.401	0.48	0.505	0.449	0.503	0.512	0.5	0.491	0.491	0.405	0.415	0.556	0.624	0.595	0.587	0.622
LC-2-ad	0.303	0.429	0.605	0.537	0.267	0.461	0.627	0.502	0.443	0.43	0.441	0.361	0.223	0.171	0.0927	0.788	0.822	0.82	0.84	0.788
NCI-H2085	0.438	0.424	0.431	0.45	0.381	0.44	0.44	0.447	0.426	0.535	0.407	0.478	0.502	0.437	0.368	0.58	0.568	0.56	0.502	0.459
NCI-H358	0.388	0.329	0.373	0.373	0.321	0.35	0.347	0.372	0.372	0.291	0.398	0.298	0.28	0.261	0.249	0.229	0.199	0.196	0.2	0.108
H3255	0.485	0.495	0.466	0.545	0.414	0.454	0.465	0.44	0.573	0.558	0.494	0.512	0.522	0.132	0.336	0.634	0.571	0.577	0.548	0.632
NCI-H2228	0.374	0.563	0.417	0.366	0.337	0.74	0.223	0.343	0.513	0.439	0.539	0.371	0.465	0.208	0.255	–	–	–	–	–
CAL-12T	0.456	0.378	0.463	0.33	0.392	0.442	0.494	0.397	0.441	0.348	0.359	0.407	0.293	0.278	0.223	–	–	–	–	–
A-427	0.642	0.814	0.845	–	0.676	0.682	0.683	0.784	0.604	0.784	0.738	0.531	0.797	0.395	0.15	0.571	0.576	0.547	0.544	0.63
HARA	0.281	0.347	0.273	0.503	0.302	0.452	0.346	0.333	0.4	0.402	0.367	0.267	0.271	0.287	0.134	0.474	0.517	0.544	0.578	0.621
NCI-H1793	0.392	0.324	0.245	0.336	0.252	0.318	0.352	0.314	0.367	0.418	0.296	0.267	0.447	0.216	0.179	0.545	0.495	0.566	0.442	0.529
NCI-H2009	0.812	0.656	0.826	0.395	0.823	0.889	0.726	0.784	0.83	0.57	0.884	0.539	0.444	0.438	0.288	0.38	0.353	0.444	0.395	0.312
ABC-1	0.847	0.614	0.646	0.757	0.737	0.863	0.698	–	0.803	0.75	0.808	0.58	0.608	0.525	0.458	1.35	1.02	1.33	0.99	1.26
IA-LM	0.176	0.257	–	0.343	0.288	0.397	0.246	0.349	0.315	0.442	0.334	0.402	0.341	0.336	0.186	–	–	–	–	–
NCI-H322M	0.902	0.501	0.577	0.585	0.479	0.501	0.272	0.508	0.481	0.572	0.48	0.487	0.406	0.308	0.252	0.679	0.654	0.749	0.663	0.718

Cell Line	relative viability (Doramapimod + Pictilisib; first compound 0.02 µM)	relative viability (Doramapimod + Pictilisib; first compound 0.06325 µM)	relative viability (Doramapimod + Pictilisib; first compound 0.2 µM)	relative viability (Doramapimod + Pictilisib; first compound 0.6325 µM)	relative viability (Doramapimod + Pictilisib; first compound 2 µM)	relative viability (IPA-3 + Pictilisib; first compound 0.2 µM)	relative viability (IPA-3 + Pictilisib; first compound 0.6325 µM)	relative viability (IPA-3 + Pictilisib; first compound 2 µM)	relative viability (IPA-3 + Pictilisib; first compound 6.325 µM)	relative viability (IPA-3 + Pictilisib; first compound 20 µM)	relative viability (RAF265 + Pictilisib; first compound 0.01 µM)	relative viability (RAF265 + Pictilisib; first compound 0.03162 µM)	relative viability (RAF265 + Pictilisib; first compound 0.1 µM)	relative viability (RAF265 + Pictilisib; first compound 0.3162 µM)	relative viability (RAF265 + Pictilisib; first compound 1 µM)	relative viability (IPA-3 + Decitabine; first compound 0.2 µM)	relative viability (IPA-3 + Decitabine; first compound 0.6325 µM)	relative viability (IPA-3 + Decitabine; first compound 2 µM)	relative viability (IPA-3 + Decitabine; first compound 6.325 µM)	relative viability (IPA-3 + Decitabine; first compound 20 µM)
NCI-H1792	0.271	0.234	0.222	0.254	0.211	0.258	0.285	0.25	0.272	0.325	0.277	0.279	0.223	0.166	0.0856	0.72	0.46	–	0.492	0.568
LXF-289	0.776	0.76	0.695	0.716	0.662	0.85	0.703	0.772	0.791	0.918	0.857	0.655	0.577	0.361	0.374	0.368	0.368	0.345	0.37	0.422
HCC-827	1.15	0.972	1.06	0.933	0.738	1.05	0.976	0.951	1.19	1.05	0.99	1.04	1.05	–	0.571	0.359	0.34	0.33	0.312	0.327
EMC-BAC-2	0.542	0.468	0.51	0.741	0.513	0.552	0.53	0.531	0.529	0.636	0.494	0.513	0.496	0.386	0.228	1.02	0.967	0.958	0.819	1.07
NCI-H520	0.238	0.278	0.252	0.288	0.22	0.3	0.277	0.268	0.246	0.202	0.273	0.246	0.234	0.228	0.15	0.528	0.523	–	0.413	0.453
NCI-H1755	0.364	0.382	0.455	0.447	0.393	0.455	0.358	0.397	0.345	0.536	0.47	0.287	0.264	0.238	0.148	0.752	0.69	0.651	0.699	0.716
NCI-H1993	0.85	0.97	0.825	0.728	0.906	0.735	0.742	0.969	0.681	1.04	0.888	0.805	0.934	0.824	0.763	0.611	0.576	0.643	0.547	0.615
NCI-H23	0.435	0.438	0.374	0.509	0.484	0.672	0.531	0.473	0.509	0.611	0.545	0.429	0.393	0.245	0.206	0.285	0.313	0.319	0.329	0.299
NCI-H522	–	–	–	–	–	–	–	–	–	–	–	–	–	–	–	0.703	0.642	0.534	0.689	0.765
NCI-H1437	0.453	0.411	0.37	0.596	0.415	0.562	0.486	0.458	0.61	0.616	0.613	0.428	0.455	0.475	0.274	0.601	0.515	0.543	0.596	0.581
NCI-H1299	0.769	0.444	0.751	0.597	0.521	0.905	0.858	0.834	0.654	0.687	0.683	0.407	0.223	0.246	0.198	–	–	–	–	–
NCI-H1563	0.677	0.633	0.634	0.724	0.645	0.68	0.62	0.622	0.694	0.59	0.648	0.742	0.626	0.604	0.718	–	–	–	–	–
Calu-6	0.89	0.891	0.91	0.997	0.844	1.06	0.872	0.933	0.736	0.848	0.87	0.594	0.462	0.306	0.209	–	–	–	–	–
NCI-H1703	0.234	0.226	0.236	0.248	0.215	0.261	0.21	0.25	0.253	0.246	0.239	0.214	0.218	0.238	0.196	–	–	–	–	–
EBC-1	0.355	0.279	0.363	0.355	0.247	0.434	0.316	0.354	0.265	0.269	0.375	0.386	0.233	0.317	0.221	–	–	–	–	–
NCI-H1648	–	–	–	–	–	–	–	–	–	–	–	–	–	–	–	0.529	0.465	0.4	0.59	0.525
SW 900	–	–	–	–	–	–	–	–	–	–	–	–	–	–	–	0.501	0.453	0.49	0.415	0.476
NCI-H2342	–	–	–	–	–	–	–	–	–	–	–	–	–	–	–	0.772	0.75	0.737	0.798	0.839
